Test [1] deals with Aβ42. Kind of test: Screening for γ-secretase-modulating activity: Aβ42 in supernatant of SKNBE2 cells carrying hAPP 695 wild type (Alphalisa). The conditions noted are these: SKNBE2 human neuroblastoma cells carrying hAPP 695 wild type; overnight incubation; Alphalisa on supernatant. The format is cell-based, human. On the procedure:
(§1) Pharmacology A) Screening of the Compounds of the Invention for γ-Secretase-Modulating Activity
(§2) Screening was carried out using SKNBE2 human neuroblastoma cells carrying the hAPP 695—wild type, grown in Dulbecco's Modified Eagle's Medium/Nutrient mixture F-12 (DMEM/NUT-mix F-12) (HAM) provided by Invitrogen (cat no. 10371-029) containing 5% Serum/Fe supplemented with 1% non-essential amino acids, 1-glutamine 2 mM, Hepes 15 mM, penicillin 50 U/mL (units/mL) en streptomycin 50 μg/mL. Cells were grown to near confluency.
(§3) The screening was performed using a modification of the assay as described in Citron et al (1997) Nature Medicine 3: 67. Briefly, cells were plated in a 384-well plate at 10^4 cells/well in Ultraculture (Lonza, BE12-725F) supplemented with 1% glutamine (Invitrogen, 25030-024), 1% non-essential amino acid (NEAA), penicillin 50 U/mL en streptomycin 50 μg/mL in the presence of test compound at different test concentrations. The cell/compound mixture was incubated overnight at 37° C., 5% CO2. The next day the media were assayed by two sandwich immuno-assays, for Aβ42 and Aβtotal.
(§4) Aβtotal and Aβ42 concentrations were quantified in the cell supernatant using the Aphalisa technology (Perkin Elmer). Alphalisa is a sandwich assay using biotinylated antibody attached to streptavidin coated donorbeads and antibody conjugated to acceptor beads. In the presence of antigen, the beads come into close proximity. The excitation of the donor beads provokes the release of singlet oxygen molecules that trigger a cascade of energy transfer in the acceptor beads, resulting in light emission. To quantify the amount of Aβ42 in the cell supernatant, monoclonal antibody specific to the C-terminus of Aβ42 (JRF/cAβ42/26) was coupled to the receptor beads and biotinylated antibody specific to the N-terminus of Aβ (JRF/AβN/25) was used to react with the donor beads. To quantify the amount of Aβ total in the cell supernatant, monoclonal antibody specific to the N-terminus of Aβ (JRF/AβN/25) was coupled to the receptor beads and biotinylated antibody specific to the mid region of Aβ (biotinylated 4G8) was used to react with the donor beads.
(§5) To obtain the values reported in Table 3, the data are calculated as percentage of the maximum amount of amyloid Beta 42 measured in the absence of the test compound. The sigmoidal dose response curves were analyzed using nonlinear regression analysis with percentage of the control plotted against the log concentration of the compound. A 4-parameter equation was used to determine the IC50.
(In general: Alpha assays give light when donor and acceptor beads are brought close together.)

For test [2], the system named is Aβtotal. The experiment in a line: Screening for γ-secretase-modulating activity: Aβtotal in supernatant of SKNBE2 cells carrying hAPP 695 wild type (Alphalisa). The format is cell-based, human. The conditions noted are these: overnight incubation, Alphalisa on supernatant. On the procedure: as §1, §2, §3, §4, §5
Where [3] appears, read: SKNBE2 human neuroblastoma cells carrying hAPP 695 wild type.
[4] abbreviates: Homo sapiens, SKNBE2, SKNBE2 human neuroblastoma cells carrying hAPP 695 wild type.

Our source for the IC50 values is patent US9115143B2, “Substituted indole derivatives as gamma secretase modulators” (Janssen Pharmaceuticals, Inc., priority 2011, dated 2015).

Structures are written as SMILES.

As a reminder, the IC50 is the concentration at which inhibition is half-maximal. A low value points to greater potency in that assay. In the case of `COc1c(C#N)ccc2[nH]c(-c3cn4c(n3)C(c3ccccc3C(F)(F)F)OCC4)cc12` (single isomer, unassigned) [Compound 45, 2-[5,6-dihydro-8-[2-(trifluoromethyl)phenyl]-8H-imidazo[2,1-c][1,4]oxazin-2-yl]-4-methoxy-1H-indole-5-carbonitrile], the IC50 in test [1] was 372 nM; in test [2] (setting [3]), above 10000 nM.

With `COc1c(C#N)ccc2[nH]c(-c3nc4n(n3)CCOC4c3ccccc3C(F)(F)F)cc12` (single isomer, unassigned) [Compound 57, 2-[5,6-dihydro-8-[2-(trifluoromethyl)phenyl]-8H-[1,2,4]triazolo[5,1-c][1,4]oxazin-2-yl]-4-methoxy-1H-indole-5-carbonitrile], the IC50 in test [1] is 603 nM; in test [2] (setting [3]), above 10000 nM.

For the compound `Cc1cn(-c2ccc3[nH]c(-c4nc5n(n4)CCCC5c4ccc(F)cc4C)cc3c2)cn1` (single isomer, unassigned) [Compound 76, 8-(4-fluoro-2-methylphenyl)-5,6,7,8-tetrahydro-2-[5-(4-methyl-1H-imidazol-1-yl)-1H-indol-2-yl]-[1,2,4]triazolo[1,5-a]pyridine], the IC50 in test [1] is 141 nM; in test [2] (setting [4]) it was above 10000 nM.

On to `COc1c(-n2cnc(C)c2)ccc2[nH]c(-c3cn4c(n3)C(c3ccc(F)cc3C)CCC4)cc12` (single isomer, unassigned) [Compound 78, 8-(4-fluoro-2-methylphenyl)-5,6,7,8-tetrahydro-2-[4-methoxy-5-(4-methyl-1H-imidazol-1-yl)-1H-indol-2-yl]-imidazo[1,2-a]pyridine], for which the results for the IC50 in test [1] and in test [2] (setting [4]) were 30 nM and above 10000 nM, respectively.

For `COc1c(-n2cnc(C)c2)ccc2[nH]c(-c3cn4c(n3)C(c3ccc(F)cc3C)CCC4)cc12` (single isomer, unassigned) [Compound 79, 8-(4-fluoro-2-methylphenyl)-5,6,7,8-tetrahydro-2-[4-methoxy-5-(4-methyl-1H-imidazol-1-yl)-1H-indol-2-yl]-imidazo[1,2-a]pyridine], the IC50 in test [1] is 186 nM; in test [2] (setting [3]) it was above 10000 nM.

For the compound `COc1ccccc1C1CCCn2nc(-c3cc4cc(-n5cnc(C)c5)ccc4[nH]3)nc21` (single isomer, unassigned) [Compound 80, 5,6,7,8-tetrahydro-8-(2-methoxyphenyl)-2-[5-(4-methyl-1H-imidazol-1-yl)-1H-indol-2-yl]-[1,2,4]triazolo[1,5-a]pyridine], the IC50 is 468 nM in test [1] and above 10000 nM in test [2] (setting [4]).

Take `COc1ccccc1C1CCCn2nc(-c3cc4cc(-n5cnc(C)c5)ccc4[nH]3)nc21` (single isomer, unassigned) [Compound 81, 5,6,7,8-tetrahydro-8-(2-methoxyphenyl)-2-[5-(4-methyl-1H-imidazol-1-yl)-1H-indol-2-yl]-[1,2,4]triazolo[1,5-a]pyridine]: the IC50 in test [1] is 74 nM; in test [2] (setting [3]) it was above 10000 nM.

As for `COc1c(-n2cnc(C)c2)ccc2[nH]c(-c3nc4n(n3)CCCC4c3ccc(F)cc3C)cc12` (single isomer, unassigned) [Compound 83, 8-(4-fluoro-2-methylphenyl)-5,6,7,8-tetrahydro-2-[4-methoxy-5-(4-methyl-1H-imidazol-1-yl)-1H-indol-2-yl]-[1,2,4]triazolo[1,5-a]pyridine], the IC50 stood at 14 nM in test [1] and 2340 nM in test [2] (setting [3]).

Consider `COc1c(-n2cnc(C)c2)ccc2[nH]c(-c3nc4n(n3)CCCC4c3ccc(F)cc3C)cc12` (single isomer, unassigned) [Compound 84, 8-(4-fluoro-2-methylphenyl)-5,6,7,8-tetrahydro-2-[4-methoxy-5-(4-methyl-1H-imidazol-1-yl)-1H-indol-2-yl]-[1,2,4]triazolo[1,5-a]pyridine], for which the IC50 in test [1] was found to be 48 nM; in test [2] (setting [3]) it was 5370 nM.

For `Cc1cn(-c2cnc3[nH]c(-c4nc5n(n4)CCCC5c4ccc(F)cc4C)cc3c2)cn1` (single isomer, unassigned) [Compound 87, 8-(4-fluoro-2-methylphenyl)-5,6,7,8-tetrahydro-2-[5-(4-methyl-1H-imidazol-1-yl)-1H-pyrrolo[2,3-b]pyridin-2-yl]-[1,2,4]triazolo[1,5-a]pyridine], the IC50 in test [1] was 447 nM; in test [2] (setting [3]) it was above 10000 nM.

With `Cc1cn(-c2cnc3[nH]c(-c4nc5n(n4)CCCC5c4ccc(F)cc4C)cc3c2)cn1` (single isomer, unassigned) [Compound 88, 8-(4-fluoro-2-methylphenyl)-5,6,7,8-tetrahydro-2-[5-(4-methyl-1H-imidazol-1-yl)-1H-pyrrolo[2,3-b]pyridin-2-yl]-[1,2,4]triazolo[1,5-a]pyridine], the results for the IC50 in test [1] and in test [2] (setting [4]) were 65 nM and above 10000 nM, respectively.

Consider `Cc1cc(F)ccc1C1OCCn2cc(-c3cc4nc(-c5cnn(C)c5)ccc4[nH]3)nc21` (single isomer, unassigned) [Compound 101, 8-(4-fluoro-2-methylphenyl)-5,6-dihydro-2-[5-(1-methyl-1H-pyrazol-4-yl)-1H-pyrrolo[3,2-b]pyridin-2-yl]-8H-imidazo[2,1-c][1,4]oxazine], for which the IC50 is 2190 nM in test [1] and above 10000 nM in test [2] (setting [4]).

Turning to `COc1c(-n2cnc(C)c2)ccc2[nH]c(-c3cn4c(n3)C(c3ccc(F)cc3C)OCC4)cc12` (single isomer, unassigned) [Compound 112, 8-(4-fluoro-2-methylphenyl)-5,6-dihydro-2-[4-methoxy-5-(4-methyl-1H-imidazol-1-yl)-1H-indol-2-yl]-8H-imidazo[2,1-c][1,4]oxazine], the results for the IC50 in test [1] and in test [2] (setting [4]) were 21 nM and above 10000 nM, respectively.

For the compound `COc1c(-n2cnc(C)c2)ccc2[nH]c(-c3cn4c(n3)C(c3ccc(F)cc3C)OCC4)cc12` (single isomer, unassigned) [Compound 113, 8-(4-fluoro-2-methylphenyl)-5,6-dihydro-2-[4-methoxy-5-(4-methyl-1H-imidazol-1-yl)-1H-indol-2-yl]-8H-imidazo[2,1-c][1,4]oxazine], the results for the IC50 in test [1] and in test [2] (setting [3]) were 151 nM and above 10000 nM, respectively.

`COc1c(C#N)ccc2[nH]c(-c3nc4n(n3)CCOC4c3c(F)cccc3Cl)cc12` (single isomer, unassigned) [Compound 118, 2-[8-(2-chloro-6-fluorophenyl)-5,6-dihydro-8H-[1,2,4]triazolo[5,1-c][1,4]oxazin-2-yl]-4-methoxy-1H-indole-5-carbonitrile]: the values for the half-inhibitory concentration (IC50) in test [1] and in test [2] (setting [3]) were 3800 nM and above 10000 nM, respectively.

Consider `COc1c(C#N)ccc2[nH]c(-c3cn4c(n3)C(c3c(F)cccc3Cl)OCC4)cc12` (single isomer, unassigned) [Compound 123, 2-[8-(2-chloro-6-fluorophenyl)-5,6-dihydro-8H-imidazo[2,1-c][1,4]oxazin-2-yl]-4-methoxy-1H-indole-5-carbonitrile], for which the IC50 in test [1] is 2820 nM; in test [2] (setting [3]), above 10000 nM.

`COc1c(C#N)ccc2[nH]c(-c3cn4c(n3)C(c3cccc(F)c3C(F)(F)F)OCC4)cc12` (single isomer, unassigned) [Compound 132, 2-[8-[3-fluoro-2-(trifluoromethyl)phenyl]-5,6-dihydro-8H-imidazo[2,1-c][1,4]oxazin-2-yl]-4-methoxy-1H-indole-5-carbonitrile]: the IC50 was 490 nM in test [1] and above 10000 nM in test [2] (setting [3]).

Regarding `COc1c(C#N)ccc2[nH]c(-c3nc4n(n3)CCOC4c3cccc(F)c3C(F)(F)F)cc12` (single isomer, unassigned) [Compound 134, 2-[8-[3-fluoro-2-(trifluoromethyl)phenyl]-5,6-dihydro-8H-[1,2,4]triazolo[5,1-c][1,4]oxazin-2-yl]-4-methoxy-1H-indole-5-carbonitrile], the IC50 in test [1] was 1000 nM; in test [2] (setting [3]) it was above 10000 nM.

`COc1c(C#N)ccc2[nH]c(-c3cn4c(n3)C(c3cccc(C)c3F)OCC4)cc12` (single isomer, unassigned) [Compound 135, 2-[8-(2-fluoro-3-methylphenyl)-5,6-dihydro-8H-imidazo[2,1-c][1,4]oxazin-2-yl]-4-methoxy-1H-indole-5-carbonitrile]: the figures for the IC50 in test [1] and in test [2] (setting [4]) were 36 nM and above 10000 nM, respectively.

As for `COc1c(C#N)ccc2[nH]c(-c3cn4c(n3)C(c3cccc(C)c3F)OCC4)cc12` (single isomer, unassigned) [Compound 136, 2-[8-(2-fluoro-3-methylphenyl)-5,6-dihydro-8H-imidazo[2,1-c][1,4]oxazin-2-yl]-4-methoxy-1H-indole-5-carbonitrile], the IC50 in test [1] was 1260 nM; in test [2] (setting [3]), above 10000 nM.
